“And” between values parts separate entries of the source, which are not always exact repeats. Equal values may be shown once.
Key:
CVB3 3C protease = molecular target: T1, CVB3 3C protease (Coxsackievirus B3, UniProt P03313); assay: FRET-based enzyme activity assay (warhead activation / inhibitor kinetics); type: biochemical, Coxsackie virus B3
T1 construct: 3C protease of Coxsackie virus B3 consisting of 183 amino-acid residues; made in house; host or cells: E. coli BL21(DE3), plasmid pET-23a(+)
T1 sequence (P03313 1541-1723): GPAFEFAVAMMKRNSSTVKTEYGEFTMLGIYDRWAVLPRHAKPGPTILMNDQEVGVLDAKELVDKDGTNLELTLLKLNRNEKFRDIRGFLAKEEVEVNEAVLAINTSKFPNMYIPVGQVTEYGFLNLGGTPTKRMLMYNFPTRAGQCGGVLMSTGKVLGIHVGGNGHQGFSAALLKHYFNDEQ
Procedure: The activity of the protease was measured by hydrolysis of the FRET-substrate N-Dabcyl-KTLEALFQ↓GPPVYE(Edans)-NH2. The peptide was purchased from Biosyntan (Berlin, Germany). Samples were irradiated with light with a wavelength of 355 nm and the emitted light at 538 nm was measured in relative fluorescence units (RFUs). An amount of 100 pmol of cleaved substrate equals 5,000 RFU.
Assay samples contained 10 μl of a 100 mM HEPES-NaOH buffer solution pH 7.5/1 mM EDTA, 10 μl enzyme solution (2 μM CVB3 3C^Pro), 10 μl of 10 μM substrate solution (both dissolved in the above buffer) and 1 μl Inhibitor and/or fragment dissolved in DMSO. For assay results of a dilution series of a mixture of 1 and 2 and comparison of reaction products in dependence of the assay solvent, see Supplementary Figs 1 and 2.
The screening procedure consisted of the following steps: 10 μl 100 mM HEPES-NaOH buffer solution pH 7.5/1 mM EDTA was placed in a cavity of the 384-well plate (polystyrene, Corning 3544). Then 10 μl of enzyme solution (40 μM CVB3 3C protease in 100 mM HEPES-NaOH buffer solution, pH 7.5/1 mM EDTA) was added and the plate was shaken for 2 min at 1,400 r.p.m. Afterwards, 0.5 μl of a DMSO solution of the electrophilic probe and 0.5 μl of a DMSO solution of the nucleophile was added, followed by 10 μl of substrate solution (10 μM in 100 mM HEPES-NaOH buffer solution, pH 7.5/1 mM EDTA). The plate was shaken again for 2 min at 1,400 r.p.m. and the generated fluorescence signal was measured with a Safire II Fluorimeter from Tecan. The electrophilic probe 1 was used at a concentration of 400 μM for the screening, which lowered the protease activity by 10–20%. Eight-hundred fifty primary amines were tested at a concentration of 320 μM and fragment 2 amplified the inhibitory activity of 1 most potently. Positive control samples contained only DMSO instead of the probe or the nucleophile. Negative control samples contained no active enzyme. An interfering fluorescent effect has not been observed.
When determining the inhibitory parameters of an inhibitor, the assay set-up was as mentioned but 1 μl DMSO solution of inhibitor was used instead of probe or nucleophile. Different concentrations of inhibitor were tested at least as duplicates and the pseudo-first-order association kinetics (kobs) were determined using GraphPad Prism. The slope of a plot of the different kobs values against the inhibitor concentration yielded kinact/KI.

[1] = molecular target: T2, Coxsackie virus 3C protease (Coxsackievirus B3, UniProt P03313); assay: ESI-MS of protease after incubation with inhibitor (covalent modification); type: binding; details: deconvoluted ESI-MS, main peak
T2 construct: 3C protease of Coxsackie virus B3 consisting of 183 amino-acid residues; made in house; host or cells: E. coli BL21(DE3), plasmid pET-23a(+)
T2 sequence (P03313 1541-1723): as above
Procedure: This inactivation rate corresponded to an apparent half-maximal inhibitory concentration (IC50) value of >>1 mM after 10 min (Fig. 2b, Table 1). The covalent mode of action was confirmed by electrospray ionization high-resolution ion mobility spectrometry-mass spectrometry (ESI-MS) measurements. Incubation of the protease with warhead 1 shifted the main deconvoluted mass peak of the protein from 21,471.5 to 21,588.5 Da and the observed protein mass difference of 117 Da corresponded well with the molecular weight of bis-electrophile 1 after hydrolysis of the ethyl ester.
High-resolution mass spectra were recorded on a Synapt G2-S HDMS by Waters Co. (Milford, […]) equipped with an Acquity UPLC and a Phenomenex Jupiter C-18 column (3 × 250 mm, 5 μm, 300 Å). The ionization and transfer parameters of the MS system have been optimized for a standard sample (insulin) and were applied without modification. Deconvolution of measurement results was performed by the MaxEnt1 method of the MassLynx software by Waters Co. The most important source parameters are: capillary voltage: 3.3 kV, sampling cone: 40 V, source offset: 60 V, source temperature: 100 °C, desolvation temperature: 250 °C, desolvation gas flow: 600 l h^−1. […]

SMILES: CCOC(=O)[C@H]1O[C@@H]1C=O [Compound 1, ethyl (2S,3S)-epoxy-4-oxo-butanoate]
- inhibition of the protease, in words (CVB3 3C protease): virtually inactive
- IC50 (CVB3 3C protease; after 10 min, read-out: apparent half-maximal inhibitory concentration (IC50)): > 1000 µM
- lowering of protease activity (CVB3 3C protease; probe at 400 μM, screening): 10–20%
- kinact/KI (CVB3 3C protease; relative inactivation rate, slope of kobs against inhibitor concentration): 2.36 M⁻¹ s⁻¹ and 2.4 ± 0.1 M⁻¹ s⁻¹
- observed protein mass difference after incubation [1]: 117 Da

From publication PMC5052702 (Nature Communications, 2016)
